Data reported in patent US6656911B2, “Serine protease inhibitors” (Cortech, Inc., priority 1994, dated 2003).

How the values were obtained:
[1] = Blood level screening after oral dose; type: in vivo, Sprague-Dawley rats; details: rat, oral gavage 10 mg/kg; for concentration at 3 h / concentration at 1 h: male, Sprague-Dawley, plasma; for concentration at 3 h: read-out: Plasma Levels (μM) 3 hr; for concentration at 1 h: read-out: Plasma Levels (μM) 1 hr
Procedure: The inhibitors were dissolved or suspended in polyethylene glycol (PEG), PEG-400 or PEG:H2O:EtOH at a concentration of 10 mg/ml. Unfasted male Sprague-Dawley rats were given an oral dose of this solution by gavage. Rats received 10 mg inhibitor/kg body weight in a volume of 1 ml/kg. After 1,3 or 6 hr., the rats were killed with an overdose of urethane (2.5 g/kg; i.p.) and the blood collected in a heparinized tube via cardiac puncture. Red blood cells were separated from the plasma by centrifugation.
Depending on the inhibitor, one of four organics (ethyl acetate, toluene, isopropyl ether or methyl t-butyl ether) was used to extract the compound from the plasma. Inhibitor concentrations were measured by HPLC or LC/MS analysis.

[2] = biological target: T1, human neutrophil elastase (HNE) (Homo sapiens, UniProt P08246); assay: HNE Ki of CE compounds, tested as described in WO 96/16080; type: biochemical; details: read-out: HNE Ki
T1 sequence (P08246 30-267): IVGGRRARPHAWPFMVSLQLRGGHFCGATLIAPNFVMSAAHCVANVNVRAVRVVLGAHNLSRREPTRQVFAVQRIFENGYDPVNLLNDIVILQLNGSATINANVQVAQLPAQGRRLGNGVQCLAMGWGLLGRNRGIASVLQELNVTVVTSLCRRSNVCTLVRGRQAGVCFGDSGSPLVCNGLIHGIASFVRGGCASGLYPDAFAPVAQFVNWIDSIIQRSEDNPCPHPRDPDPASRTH

Plasma Levels (μM) 1 hr ([1]; 1 hr) | Plasma Levels (μM) 3 hr [1] | Plasma Levels (μM) 6 hr ([1]; 6 hr) | Ki [2] | concentration at 3 h [1] | concentration at 1 h ([1]; 1 hr) | Compound
0.714 µM | 1.393 µM | 0.409 µM | 40 nM |  |  | Cc1cccc(Cc2nnc(C(=O)C(NC(=O)Cn3c(=O)c(N)cc4ccccc43)C(C)C)o2)c1 (racemic) [CE2228, 3-(R,S)-Amino-quinolin-2-one-N-[1-(2-[5-(3-methylbenzyl)-1,3,4-oxadiazolyl]carbonyl)-2-(R,S)-methylpropyl]acetamide]
 |  |  |  | 0.002 µM |  | Cc1cccc(Cc2nc(C(=O)[C@@H](NC(=O)[C@@H]3CCCN3C(=O)[C@@H](NC(=O)OCc3ccccc3)C(C)C)C(C)C)no2)c1 [CE2055, (Benzyloxycarbonyl)-L-valyl-N-[1-(3-[5-(3-methylbenzyl)-1,2,4-oxadiazolyl]carbonyl)-2-(S)-methylpropyl]-L-prolinamide]
 |  |  | 66 nM | 0.755 µM | 0.801 µM | Cc1cccc(Cc2nnc(C(=O)C(NC(=O)CN3C(=O)CCc4ccccc43)C(C)C)o2)c1 (stereo not shown) [CE2088, 3,4-Dihydro-quinoline-2-one-N-[1-(2-[5-(3-methylbenzyl)-1,3,4-oxadiazolyl]carbonyl)-2-N-methylpropyl]acetamide]
 |  |  | 1.9 nM | 0.042 µM |  | CC(=O)N1CC(=O)N(CC(=O)N[C@H](C(=O)c2nnc(Cc3cccc(C)c3)o2)C(C)C)C(=Cc2ccccc2)C1=O [CE2099, 1-Acetyl-3-benzylidene piperazine-2,5-dione-N-[1-(2-[5-(3-methylbenzyl)-1,3,4-oxadiazolyl]carbonyl)-2-(S)-methylpropyl]acetamide]
 |  |  | 20 nM | 0.69 µM |  | CC(=O)N1CC(=O)N(CC(=O)N[C@H](C(=O)c2nnc(Cc3cccc(C)c3)o2)C(C)C)C(=Cc2ccc(N(C)C)cc2)C1=O [CE2111, 1-Acetyl-3-(4-dimethylaminobenzylidene) piperazine-2,5-dione-N-[1-(2-[5-(3-methylbenzyl)-1,3,4-oxadiazolyl]carbonyl)-2-(S)-methylpropyl]acetamide]
 |  |  | 39 nM | 0.909 µM | 1.83 µM | Cc1cccc(Cc2nnc(C(=O)[C@@H](NC(=O)Cn3c(=O)c(N)cc4ccccc43)C(C)C)o2)c1 [CE2113, 3-(Amino-quinoline-2-one)-N[1-(2-[5-(3-methylbenzyl)-1,3,4-oxadiazolyl]carbonyl)-2-(S)-methylpropyl]acetamide]
 |  |  | 0.4 nM | 0.011 µM |  | CC(C)[C@H](NC(=O)[C@@H]1Cc2ccccc2N1C(=O)[C@@H](NC(=O)OCc1ccccc1)C(C)C)C(=O)c1noc(Cc2cccc(C(F)(F)F)c2)n1 [CE2125, (Benzyloxycarbonyl)-L-valyl-2-L-(2,3-dihydro-1H-indole)-N-[1-(3-[5-(3-trifluoromethylbenzyl)-1,2,4-oxadiazolyl]carbonyl)-2-(S)-methylpropyl]amide]
 | 0.005 µM |  | 64 nM |  |  | CC(C)[C@H](NC(=O)CN1C(=O)N[C@H](Cc2ccccc2)C1=O)C(=O)c1noc(Cc2cccc(C(F)(F)F)c2)n1 [CE2141, 5-(R)-Benzyl-2,4-imidazolidinedione-N-[1-(3-[5-(3-trifluoromethylbenzyl)-1,2,4-oxadiazolyl]carbonyl)-2-(S)-methylpropyl]acetamide]
 |  |  | 10.6 nM | 0.025 µM |  | Cc1cccc(Cc2nnc(C(=O)[C@@H](NC(=O)CN3C(=O)CN(CCN4CCOCC4)C(=O)[C@H]3Cc3ccccc3)C(C)C)o2)c1 [CE2162, 4-[1-(2-N-Morpholino)ethyl-3-(R)-benzylpiperazine-2,5-dione]-N-[1-(2-[5-(3-methylbenzyl)-1,3,4-oxadiazolyl]carbonyl)-2-(S)-methylpropyl]acetamide]
 |  |  | 348 nM |  |  | (R,S)-3-Amino-2-oxo-5-phenyl-1,4-(6-2′-chlorobenzodiazepine)-N-[1-(2-[5-phenyl-1,3,4-oxadiazolyl]carbonyl)-2-(R,S)-propyl]acetamide [CE2211]
